Data on one molecule can be found in US20070082327A1, “Cellular phenotype” (Cytokinetics, Inc. A Delaware Corporation, priority 2005, published 2007).

The test system of one test is 60 cancer cell lines. The following applies: NCI 60 cell line data; cited from earlier work.
Another test concerns SKOV3 cells. The test can be described thus: time-lapse tracking of cell fate, GFP-Histone 2B SKOV3 cells. Type of test: cell-based. The following applies: SKOV3, 20 random cells tracked, 0.5 μM Taxol, FIG. 3a. As to the method: FIG. 3a is a bar graph showing the percentages of 20 random cells tracked to assess their fate: complete mitosis, death from mitosis, decondensation (uncertain fate) and death from decondensation.
The data used to construct the chart was obtained by time-lapse movies of cells marked with GFP-Histone 2B. Movies were collected on cell populations treated with two different mp2 stimulus compounds at various concentrations, as well as on DMSO-treated (control) cells, cells treated with 0.5 μM Taxol, and cells treated with compounds that produce a rice phenotype. […] It is believed that most of these cells would eventually die.

In the case of `CC(=O)O[C@H]1C(=O)[C@@]2(C)[C@H]([C@H](OC(=O)c3ccccc3)[C@]3(O)C[C@H](OC(=O)[C@H](O)[C@@H](NC(=O)c4ccccc4)c4ccccc4)C(C)=C1C3(C)C)[C@]1(OC(C)=O)CO[C@@H]1C[C@@H]2O` [Taxol, paclitaxel], in the test on 60 cancer cell lines, the “potency differences between cell types” value is “over 3 orders of magnitude”. Besides, in the test on SKOV3 cells, the “cell fate after treatment” value is on record as “the highest number of cells die directly from mitosis”.
